Source: EP0597303A2, “Cephalosporin derivatives” (priority 1992, dated 1994)
Counter-ions that a name gives are not always drawn. Like-named read-outs stand apart in the source and are kept apart here.

Columns and labels:
Str. pneumoniae 6302 = test: MIC, Agar (Mueller Hinton) Dilution Method; assay type: cell-based; details: Streptococcus pneumoniae, Gram Positive and Others
In short: (§1)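 Mueller Hinton agar dilution; organisms spanning Gram-positive and Gram-negative species; endpoint MIC in µg/ml.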

Str. pyogenes 503-782 = test: MIC, Agar (Mueller Hinton) Dilution Method; assay type: cell-based; details: Streptococcus pyogenes, 503782
In short: as §1

[1] = Str. pyogenes 503-782, Gram Positive and Others, read-out: MIC

SMILES | MIC (Str. pneumoniae 6302) [µg/mL] | MIC (Str. pyogenes 503-782; [1]) [µg/mL] | MIC (Str. pyogenes 503-782) [µg/mL]
N#CCC(=O)N[C@@H]1C(=O)N2C(C(=O)O)=C(COC(=O)N[C@@H]3CCN(c4c(F)cc5c(=O)c(C(=O)O)cn(C6CC6)c5c4F)C3)CS[C@H]12 [Formula Ibb, [6R-[3(R^*), 6 alpha, 7 beta]]-3-[[[[[1-(3-Carboxy-1-cyclopropyl-6,8-difluoro-1,4-dihydro-4-oxo-7-quinolinyl-3-pyrrolidinyi]amino]carbonyl]oxy]methyL]-7-[(cyanoacetyl)amino]-8-oxo-5-thia-1-azabicyclo[4.2.0]oct-2-ene-2-carboxylic acid monosodium salt] | 0.0625 | 0.0625 | –
N#CCC(=O)N[C@@H]1C(=O)N2C(C(=O)O)=C(COC(=O)N[C@H]3CCN(c4c(F)cc5c(=O)c(C(=O)O)cn(C6CC6)c5c4F)C3)CS[C@H]12 [Formula Iba, [6R-[3(S^*), 6 alpha, 7 beta]]-3-[[[[[1-(3-Carboxy-1-cyclopropyl-6,8-difluoro-1,4-dihydro-4-oxo-7-quinolinyl-3-pyrrolidinyl]-amino]carbonyl]oxy]methyl]-7-[(cyanoacetyl)amino]-8-oxo-5-thia 1-azabicyclo[4.2.0]oct-2-ene-2-carboxylic acid monosodium salt] | 0.0625 | – | 0.0313
O=C(Cc1cccs1)N[C@@H]1C(=O)N2C(C(=O)O)=C(COC(=O)N3CCN(c4c(F)cc5c(=O)c(C(=O)O)cn(C6CC6)c5c4F)CC3)CS[C@H]12 [Formula Ia, [6R,7R]-3-[[[[4-(3-Carboxy-1-cyclopropyl-6,8-difluoro-1,4-dihydro-4-oxo-7-quinolinyl)-1-piperazinyl]carbonyl]-oxy]-methyl]-8-oxo-7-[(2-thienylacetyl)amino]-5-thia-1-azabicyclo-[4.2.0]oct-2-ene-2-carboxylic acid] | – | ≤ 0.0156 | –
N#CCC(=O)N[C@@H]1C(=O)N2C(C(=O)O)=C(COC(=O)NC3CCN(c4c(F)cc5c(=O)c(C(=O)O)cn(C6CC6)c5c4F)C3)CS[C@H]12 (stereo partly drawn) [Formula Ib, [6R,7R]-3-[[[[[1-(3-Carboxy-1-cyclopropyl-6,8-difluoro-1,4-dihydro-4-oxo-7-quinolinyl-3-[R,S]-pyrrolidinyl]-amino]carbonyl]oxy]methyl]-7-[(cyanoacetyl)amino]-8-oxo-5-thia-1-azabicyclo[4.2.0]oct-2-ene-2-carboxyiic acid monosodium salt] | – | 0.0625 | –
